Source: patent publication US20050272784A1 (priority 2004, published 2005)

Each molecule was assayed on type III protein secretion system of P. aeruginosa PA103 (ExoU secretion) (assay: Tertiary assay: Type III-dependent secretion of ExoU by P. aeruginosa PA103). Conditions: Pseudomonas aeruginosa, ExoU Conc 100 μM, read-out: ExoU % Inh.
Assay type: cell-based
Text: Tertiary assay: inhibition of Type III protein secretion of effectors from a Pseudomonas aeruginosa system. Type III protein secretion is used by P. aeruginosa to secrete several essential virulence determinants. One effector of the type III protein secretion system of P. aeruginosa PA103 is the virulence determinants ExoU.
The amount of Type III-dependent secretion of ExoU by P. aeruginosa PA103 can be determined in a cell-based assay by quantification of the 73.9 kDa ExoU protein scereted into the extracellular medium. Such quantitation can be achieved by growing strain PA103 in a deferrated medium in the presence of nitrilotriacetic acid (an inducer of Type III protein secretion in P. aeruginosa) and either in the presence or absence of putative inhibitors. After a prolonged growth period, the cells are sedimented and the supernatants concentrated by ammonium sulfate precipitation. The proteins in the resuspended pellets are separated by electrophoresis on SDS-polyacrylamide gels. After staining gels with Colloidal Blue™, the 73.9 kDa ExoU band is quantitated by scanning through an imager. The effects of inhibitors on the intensity of the ExoU band may be measured relative to that of untreated controls.
With `O=C(NC(Cc1ccc(Cl)cc1)C(=O)O)c1nc(-c2ccc(C(F)(F)F)cc2)oc1-c1ccc(-c2ccccc2)cc1` (stereo not drawn) [Compound 59, 2-{[5-Biphenyl-4-yl-2-(4-trifluoromethylphenyl)oxazole-4-carbonyl]amino}-3-(4-chlorophenyl)propionic acid] the inhibition at 100 µM was 84.1%.

Same assay, conditions: Pseudomonas aeruginosa, ExoU secreted into extracellular medium
`O=C(N[C@H](COCc1ccccc1)C(=O)O)c1nc(-c2ccc(C(F)(F)F)cc2)oc1-c1ccc(-c2ccccc2)cc1` [Compound 72, (R)-3-Benzyloxy-2-{[5-biphenyl-4-yl-2-(4-trifluoromethylphenyl)oxazole-4-carbonyl]amino}propionic acid] was tested, and the IC50 was 54.8 µM. `O=C(N[C@@H](C[S+]([O-])Cc1ccccc1)C(=O)O)c1nc(-c2ccc(-c3ccccc3)cc2)nn1-c1ccc(Cl)c(Cl)c1` (stereo partly drawn) [Compound 70, (R)-2-{[5-Biphenyl-4-yl-2-(3,4-dichlorophenyl)-2H-[1,2,4]triazole-3-carbonyl]amino}-3-phenylmethanesulfinylpropionic acid] gave an IC50 of 25.5 µM. For `O=C(N[C@@H](COCc1ccccc1)C(=O)O)c1nc(-c2ccc(C(F)(F)F)cc2)oc1-c1cc2ccccc2s1` [Compound 22, (S)-2-{[5-Benzo[b]thien-2-yl-2-(4-trifluoromethylphenyl)oxazole-4-carbonyl]amino}-3-benzyloxypropionic acid], the IC50 was 82.4 µM. `O=C(N[C@@H](CSCc1ccccc1)C(=O)O)c1nc(-c2ccc(C(F)(F)F)cc2)oc1C1CCN(c2nccc(C(F)(F)F)n2)CC1` [Compound 57, (R)-3-Benzylsulfanyl-2-({2-(4-trifluoromethylphenyl)-5-[1-(4-trifluoromethylpyrimidin-2-yl)piperidin-4-yl]oxazole-4-carbonyl}amino)propionic acid] showed an IC50 of 50 µM. In the case of `Cn1cc(-c2oc(-c3ccc(C(F)(F)F)cc3)nc2C(=O)NC(Cc2ccc(Cl)cc2)C(=O)O)c2ccccc21` (stereo not drawn) [Compound 48, 3-(4-Chlorophenyl)-2-{[5-(1-methyl-1H-indol-3-yl)-2-(4-trifluoromethylphenyl)oxazole-4-carbonyl]amino}propionic acid], the IC50 is reported as 73.5 µM. Work on `O=C(NC(Cc1ccc(Cl)cc1)C(=O)O)c1nc(-c2ccc(C(F)(F)F)cc2)oc1C1CCN(c2nccc(C(F)(F)F)n2)CC1` (stereo not drawn) [Compound 55, 3-(4-Chlorophenyl)-2-({2-(4-trifluoromethylphenyl)-5-[1-(4-trifluoromethylpyrimidin-2-yl)piperidin-4-yl]oxazole-4-carbonyl}amino)propionic acid] yielded an IC50 of 51.7 µM. Molecule `O=C(N[C@@H](CSCc1ccccc1)C(=O)O)c1nc(-c2ccc(-c3ccccc3)cc2)oc1-c1cnc(Cl)c(Cl)c1` [Compound 43, (R)-3-Benzylsulfanyl-2-{[2-biphenyl-4-yl-5-(5,6-dichloropyridin-3-yl)oxazole-4-carbonyl]amino}propionic acid] has an IC50 of 45.7 µM. `O=C(NC(Cc1ccc(Cl)cc1)C(=O)O)c1nc(-c2ccc(Oc3ccccc3)cc2)oc1-c1cnc(Cl)c(Cl)c1` (stereo not drawn) [Compound 41, 3-(4-Chlorophenyl)-2-{[5-(5,6-dichloropyridin-3-yl)-2-(4-phenoxyphenyl)oxazole-4-carbonyl]amino}propionic acid] showed an IC50 of 51.6 µM. In the case of `O=C(N[C@H](Cc1ccc(Cl)cc1)C(=O)O)c1nc(-c2ccc(-c3ccccc3)cc2)nn1-c1cccc(C(F)(F)F)c1` [Compound 4, (R)-2-{[5-Biphenyl-4-yl-2-(3-trifluoromethylphenyl)-2H-[1,2,4]triazole-3-carbonyl]amino}-3-(4-chlorophenyl)propionic acid], the IC50 is reported as 56.6 µM. `O=C(N[C@@H](COCc1ccccc1)C(=O)O)c1nc(-c2ccc(-c3ccccc3)cc2)oc1-c1cccc(C(F)(F)F)c1` [Compound 62, (S)-3-Benzyloxy-2-{[2-biphenyl-4-yl-5-(3-trifluoromethylphenyl)oxazole-4-carbonyl]amino}propionic acid] showed an IC50 of 50.5 µM. `O=C(N[C@@H](CSCc1ccccc1)C(=O)O)c1nc(-c2ccc(Oc3ccccc3)cc2)oc1-c1ccc(Cl)c(Cl)c1` [Compound 8, (R)-3-Benzylsulfanyl-2-{[5-(3,4-dichlorophenyl)-2-(4-phenoxyphenyl)oxazole-4-carbonyl]amino}propionic acid] was tested, and the IC50 was 45.4 µM. `O=C(N[C@@H](COCc1ccccc1)C(=O)O)c1nc(-c2ccc(C(F)(F)F)cc2)oc1-c1ccc(Cl)nc1` [Compound 29, (S)-3-Benzyloxy-2-{[5-(6-chloropyridin-3-yl)-2-(4-trifluoromethylphenyl)oxazole-4-carbonyl]amino}propionic acid] showed an IC50 of 73.4 µM. For `O=C(N[C@@H](COCc1ccccc1)C(=O)O)c1nc(-c2ccc(Oc3ccccc3)cc2)oc1-c1ccc(Cl)nc1Cl` [Compound 37, (S)-3-Benzyloxy-2-{[5-(2,6-dichloropyridin-3-yl)-2-(4-phenoxyphenyl)oxazole-4-carbonyl]amino}propionic acid], the IC50 was 91.7 µM. In the case of `O=C(N[C@@H](COCc1ccccc1)C(=O)O)c1nc(-c2ccc(-c3ccsc3)cc2)oc1-c1ccc(Cl)c(Cl)c1` [Compound 52, (S)-3-Benzyloxy-2-{[5-(3,4-dichlorophenyl)-2-(4-thien-3-yl-phenyl)oxazole-4-carbonyl]amino}propionic acid], the IC50 is reported as 56.4 µM. In the case of `O=C(N[C@@H](CSCc1ccccc1)C(=O)O)c1nc(-c2ccc(C(F)(F)F)cc2)oc1-c1ccc(-c2ccccc2)cc1` [Compound 5, (R)-3-Benzylsulfanyl-2-{[5-biphenyl-4-yl-2-(4-trifluoromethylphenyl)oxazole-4-carbonyl]amino}propionic acid], the IC50 is reported as 12.5 µM. With `O=C(NC(Cc1ccc(Cl)cc1)C(=O)O)c1nc(-c2ccc(-c3ccccc3)cc2)nn1-c1ccc(Cl)c(Cl)c1` (stereo not drawn) [Compound 69, 2-{[5-Biphenyl-4-yl-2-(3,4-dichlorophenyl)-2H-[1,2,4]triazole-3-carbonyl]amino}-3-(4-chlorophenyl)propionic acid] the IC50 was 32.4 µM. `Cc1nc(-c2ccc(-c3oc(-c4ccc(C(F)(F)F)cc4)nc3C(=O)N[C@@H](CSCc3ccccc3)C(=O)O)cc2)no1` [Compound 51, (R)-3-Benzylsulfanyl-2-{[5-[4-(5-methyl[1,2,4]oxadiazol-3-yl)phenyl]-2-(4-trifluoromethylphenyl)oxazole-4-carbonyl]amino}propionic acid] gave an IC50 of 19.5 µM. For `O=C(NC(Cc1ccc(Cl)cc1)C(=O)O)c1[nH]c(-c2ccc(-c3ccccc3)cc2)nc1-c1cccc(C(F)(F)F)c1` (stereo not drawn) [Compound 3, 2-{[2-Biphenyl-4-yl-5-(3-trifluoromethylphenyl)-3H-imidazole-4-carbonyl]amino}-3-(4-chlorophenyl)propionic acid], the IC50 was 20.6 µM. For `CN(C(=O)c1nc(-c2ccc(C(F)(F)F)cc2)oc1-c1ccc(-c2ccccc2)cc1)[C@@H](CSCc1ccccc1)C(=O)O` [Compound 16], the IC50 was 80.9 µM.

The molecules below were run on SPI1 type III protein secretion system (SopE'-'Bla secretion) (assay: Primary assay: Type III protein secretion of the chimeric SopE'-'Bla polypeptide by Salmonella enterica). Conditions: read-out: SopE IC50.
Assay type: cell-based
Text: Primary assay: Type III protein secretion of the chimeric SopE′-'Bla polypeptide by Salmonella enterica. This procedure is a cell-based assay that measures the type III-dependent secretion by Salmonella enterica of a plasmid-encoded chimeric polypeptide whose synthesis can be regulated, and which is endowed with an enzymatic activity that can be monitored […] by hydrolysis of a substrate that is unable to penetrate into the bacterial cytoplasm within the time constraints of the reaction. Thus, the colorimetric reaction is not influenced by SopE′-'Bla polypeptide in the bacterial cytoplasm. Instead, it effectively measures the amount of polypeptide that has been secreted from the S. enterica cytoplasm to the extracellular medium via type III system protein secretion.
The SopE′-' Bla recombinant polypeptide consists of two functionally distinct domains spliced together. The N-terminus domain is encoded by a polynucleotide region specifying the signal for type III secretion of the SopE polypeptide of S. enterica, an effector of the SPI1 type III protein secretion system. The C-terminus domain of SopE′-'Bla consists of a 263 amino acid peptide sequence that corresponds to the TEM-1 β-lactamase expressed by plasmid pBR322 but without its N-terminal signal sequence. The TEM-1 β-lactamase part of the SopE′-'Bla chimeric polypeptide is used as a reporter enzyme. It is capable of hydrolyzing nitrocefin resulting in a product whose accumulation can be monitored by colorimetric detection. The secretion of the SopE′-'Bla chimeric polypeptide from the cytoplasm to the extracellular medium is dependent on type III protein secretion.
For this procedure, cells grown under conditions known to favor a functional SPI1 secretion system are induced for expression of the SopE′-'Bla protein and grown either in the presence or in the absence of putative inhibitors for determined time. Nitrocefin is then added to the various cultures and its hydrolysis are used for quantitation. An inhibitor of Type III protein secretion is generally a compound that reduces the signal of the enzymatic reaction by decreasing the amount of SopE′-'Bla secreted into the extracellular medium.
Molecule `O=C(N[C@@H](CSCc1ccccc1)C(=O)O)c1nc(-c2ccc(C(F)(F)F)cc2)oc1-c1cnc2ccccc2n1` [Compound 11, (R)-3-Benzylsulfanyl-2-{[5-quinoxalin-2-yl-2-(4-trifluoromethylphenyl)oxazole-4-carbonyl]amino}propionic acid] has an IC50 of 42.2 µM. `Cn1cc(-c2oc(-c3ccc(C(F)(F)F)cc3)nc2C(=O)N[C@@H](CSCc2ccccc2)C(=O)O)c2ccccc21` [Compound 46, (R)-3-Benzylsulfanyl-2-{[5-(1-methyl-1H-indol-3-yl)-2-(4-trifluoromethylphenyl)oxazole-4-carbonyl]amino}propionic acid] was tested, and the IC50 was 47.3 µM. Work on `O=C(N[C@@H](COCc1ccccc1)C(=O)O)c1nc(-c2ccc(C(F)(F)F)cc2)oc1C1CCN(c2nccc(C(F)(F)F)n2)CC1` [Compound 56] yielded an IC50 of 12 µM. Work on `O=C(N[C@@H](CS(=O)(=O)Cc1ccccc1)C(=O)O)c1nc(-c2ccc(C(F)(F)F)cc2)oc1-c1cccnc1N1CCCCC1` [Compound 31, (R)-3-Phenylmethanesulfonyl-2-{[5-(3,4,5,6-tetrahydro-2H-[1,2′]bipyridin-3′-yl)-2-(4-trifluoromethylphenyl)oxazole-4-carbonyl]amino}propionic acid] yielded an IC50 of 71.5 µM.
